By EC50 is commonly meant the concentration needed to bring the measured effect to its halfway point. What is called IC50 is the point on the concentration scale where inhibition reaches its midpoint. Read a low IC50 as greater potency in that assay.

Where two headings read alike, the source gives them in different places.

Consider 13 compounds from US10287267B2, “Isoquinolin-3-yl carboxamides and preparation and use thereof” (Samumed, LLC, priority 2016, dated 2019).

Experiment [1] has as its system Wnt pathway (Sp5-Luc reporter, TCF/LEF binding sites) in SW480 colon carcinoma cells. Put plainly: Screening assay for Wnt activity: Sp5-Luc reporter gene assay.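 For all read-outs here: firefly luciferase luminescence read in stably transduced SW480 cells carrying the Sp5 promoter reporter with eight TCF/LEF sites, compounds given in 0.1% DMSO final.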 The format is cell-based, human. The settings on record: Homo sapiens; for EC50: Sp5-Luc reporter, SW480 cells, 36 to 48 hours; for inhibition at 10 µM: SW480, read-out: percent inhibition at 10 μM. A general note: Reporter assays use an easily measured gene product as a stand-in for the process of interest.
Method: The screening assay for Wnt activity is described as follows.
Following incubation, 15 μl of BriteLite Plus luminescence reagent (Perkin Elmer) was added to each well of the 384-well assay plates. The plates were placed on an orbital shaker for 2 min and then luminescence was quantified using the Envision (Perkin Elmer) plate reader.

Experiment [2] deals with recombinant DYRK1A kinase (Homo sapiens (Human), UniProt Q13627). Put plainly: DYRK1A kinase assay (Ser/Thr 18 peptide Z-lyte FRET).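 Note: Read-out is the coumarin to fluorescein emission ratio, referenced to unphosphorylated (0%) and phosphorylated (100%) Ser/Thr 18 peptide controls, values from dose-response curves by non-linear regression.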 The format is biochemical. The settings on record: 30 μM ATP, 1 h room temperature.
Another experiment concerns the target recombinant GSK3β kinase (Homo sapiens (Human), UniProt P49841). Put plainly: GSK3β kinase assay (Ser/Thr 09 peptide Z-lyte FRET).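 Note: kinase activity read as coumarin to fluorescein emission ratio, 11-point threefold dilutions from 10 µM to 0.0003 µM in duplicate, unphosphorylated and phosphorylated peptide as 0% and 100% controls.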 The format is biochemical. Conditions: 46 μM ATP, 1 h room temperature.
Experiment [3] deals with Tau phosphorylation at Ser396 (pSer396). Put plainly: Tau phosphorylation assay (pSer396 ELISA / western blot) in SH-SY5Y cells.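 Note: EC50 for reduction of Tau pSer396 in lysed cells, measured by colorimetric ELISA or chemiluminescent western blot, both using the same pSer396 antibody.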 The format is cell-based, human. The settings on record: Homo sapiens, read-out: pSer396 Tau EC50. A general note: In an ELISA, binding on a coated surface is turned into a signal by an enzyme label.
Method: Two days before treatment, cells were seeded onto 96 well plates at 5×10^4 cells/well.
Wells were visually checked for cell death or change in morphology and supernatants were tested for cytotoxicity by measurement of lactate dehydrogenase release (LDH, CytoToxOne kit, Promega) if necessary.
Cells were lysed with RIPA buffer complemented with phosphatase and protease inhibitors then lysates were spun down at 12,000 g for 10 min to remove any cellular debris. Lysates are then either directly tested for pSer396 by ELISA (Life Technology, Kit KHB7031) or loaded on NuPage Bis-Tris gels for western blot analysis. Colorimetric detection of ELISA signal is performed by Cytation3 plate reader (Biotek) and the chemiluminescence signal for HRP-linked antibodies used in western blotting is detected using a Carestream Image Station. The same pSer396 antibody is used for detection of pTau in both assays.
Experiment [4] concerns secreted β-amyloid 40 (Aβ40) peptide. Description: Secreted β-amyloid 40 (Aβ40) peptide in APP overexpressing SH-SY5Y-APP cells. Conditions: Homo sapiens, overnight (16-18 hours). The class given is cell-based.
Method: Representative compounds were screened using the cell-based assay procedure for secreted β-amyloid 40 (Aβ40) peptide in an APP overexpressing cell line described below.
SH-SY5Y cells were infected with lentivirus to overexpress amyloid (A4) beta precursor protein (APP), hereafter referred to as the SH-SY5Y-APP cells.
SH-SY5Y cells were seeded onto 6-well plates at
The cell assay procedure start 18 h prior to treatment, as SH-SY5Y-APP cells were seeded onto 96-well plates at
At this time, designated wells were seeded with SH-SY5Y cells that were seeded and treated with puromycin at
Cells were exposed overnight (16-18 hours) in a 37° C. incubator before supernatant was harvested. […] The original plates with seeded cells were tested for cytotoxicity by measure of adenosine triphosphate (ATP) release by adding CellTiter-Glo® diluted 1:4 in distilled water (G7573, Promega) and transferring lysed cells to a completely black 96-well plate to be read with the Cytation3. Plates containing supernatant were spun down at 1200 g for 10 minutes to remove any cellular debris. Supernatant was then diluted 1:2 with a diluent from V-PLEX Aβ40 Peptide (6E10) Kit and directly tested for secreted Aβ40 peptide (K150SKE, Meso Scale Discovery).
For experiment [5], the system named is SW480 colon carcinoma cells. Description: Cell viability assay (CellTiter-Glo). The class given is cell-based, human. The settings on record: Homo sapiens; for EC50: 96 h, SW480 cells, CellTiter-Glo, four days incubation; for inhibition at 10 µM: SW480, read-out: percent inhibition at 10 μM. A general note: In ATP-based viability assays light output follows the ATP content of the culture.

Experiment [6] deals with α-smooth muscle actin (αSMA) positive LL29 cells. Description: Inhibition of fibrotic process: αSMA in TGF-β1 treated primary human fibroblasts from IPF patients.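 For all read-outs here: controls were TGF-β1 stimulated wells with DMSO vehicle (positive) and cells given DMSO alone (negative), cultured in F12 medium with 1% fetal bovine serum.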 The class given is cell-based. Conditions: Homo sapiens, Fibroblast; for EC50: 96 h, Table 8, LL29 fibroblasts from IPF patients, TGF-β1 20 ng/mL, 4 days, dose-response 10 μM to 0.94 nM; for inhibition at 10 µM: read-out: percent value in parentheses beside EC50 >10 μM.

For another experiment, the system named is IL-6. Put plainly: IL-6 inhibition in LPS-stimulated human peripheral blood mononuclear cells (HTRF).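 For all read-outs here: IL-6 detected by HTRF with an XL665- and Cryptate-labelled anti-IL-6 antibody pair, samples run in duplicate, EC50 obtained from a four-parameter Levenberg-Marquardt curve fit.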 The format is cell-based. Conditions: Homo sapiens, PBMC; for EC50: Table 9, huPBMCs, LPS 50 ng/mL, 22 hours, dose-response starting from 10 μM; for inhibition at 10 µM: read-out: percent value in parentheses beside EC50 >10 μM.
The mark [7] stands for this setting: SH-SY5Y cells, overnight (16-18 h) exposure.

Sequence of recombinant GSK3β kinase (P49841 whole entry): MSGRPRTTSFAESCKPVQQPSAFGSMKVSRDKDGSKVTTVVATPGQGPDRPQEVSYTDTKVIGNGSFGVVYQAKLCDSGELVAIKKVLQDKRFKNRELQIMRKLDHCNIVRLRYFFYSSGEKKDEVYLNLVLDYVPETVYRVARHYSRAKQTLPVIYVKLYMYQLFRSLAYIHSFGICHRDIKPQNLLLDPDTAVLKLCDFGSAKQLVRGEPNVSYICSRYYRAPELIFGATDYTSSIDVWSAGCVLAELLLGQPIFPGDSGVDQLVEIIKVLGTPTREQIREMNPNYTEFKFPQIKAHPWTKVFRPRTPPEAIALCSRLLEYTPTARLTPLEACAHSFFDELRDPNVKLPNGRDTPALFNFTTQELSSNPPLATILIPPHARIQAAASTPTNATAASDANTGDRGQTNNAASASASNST
Method for IL-6: After 22 hour incubation, a mixture of anti-IL6 XL665 and anti-IL-6 Cryptate diluted in reconstitution buffer (Catalog #62IL6PEC, Cisbio Inc., Bedford, Mass.) was added to each well. […] All samples were processed in duplicate. […] EC50 was determined using software generated by Dotmatics Limited (Windhill Bishops Stortford Herts, UK) using the Levenberg-Marquardt 4 parameter fitting procedure with finite different gradients.

With `Cn1cc(-c2ccc3cnc(NC(=O)C4CC4)cc3c2)cn1` [Compound 1, N-(6-(1-Methyl-1H-pyrazol-4-yl)isoquinolin-3-yl)cyclopropanecarboxamide], the EC50 in experiment [1] amounted to 0.65 µM; in experiment [2], 0.004 µM; on recombinant GSK3β kinase, 0.008 µM; in experiment [3] (setting [7]) it was 0.149 µM; in experiment [5] it was 0.13 µM; in experiment [6], 0.135 µM. This compound gave an EC50 in the experiment with IL-6 of 0.338 µM. The same compound returned a half-maximal inhibitory concentration (IC50) in experiment [4] of 3.96 µM.
`Cn1cc(-c2ccc3cnc(NC(=O)C4CCNCC4)cc3c2)cn1` [Compound 72, N-(6-(1-methyl-1H-pyrazol-4-yl)isoquinolin-3-yl)piperidine-4-carboxamide]: the concentration giving a half-maximal response (EC50) in experiment [1] is 0.92 µM; in experiment [2], 0.0025 µM; at recombinant GSK3β kinase, 0.064 µM; in experiment [3] (setting [7]) it was 0.757 µM; in experiment [5], 0.911 µM; in experiment [6] it was 0.096 µM. The concentration giving a half-maximal response (EC50) in the experiment on IL-6 worked out at 1.13 µM. Further, 2.1 µM corresponded to half-maximal inhibition in experiment [4] (IC50).
For `Cn1cc(-c2ccc3cnc(NC(=O)C4CCN(C5CC5)CC4)cc3c2)cn1` [Compound 76, 1-Cyclopropyl-N-(6-(1-methyl-1H-pyrazol-4-yl)isoquinolin-3-yl)piperidine-4-carboxamide], the 50% effective concentration (EC50) was 0.705 µM in experiment [1]; 0.0023 µM in experiment [2]; 0.031 µM on recombinant GSK3β kinase; 0.219 µM in experiment [3] (setting [7]); 1.56 µM in experiment [5]; 0.087 µM in experiment [6]. Besides, the EC50 in the experiment with IL-6 was found to be 1.13 µM. The IC50 in experiment [4] was 1.2 µM.
On to `Cn1cc(-c2ccc3cnc(NC(=O)C4CCN(CC(C)(C)C)CC4)cc3c2)cn1` [Compound 78, N-(6-(1-Methyl-1H-pyrazol-4-yl)isoquinolin-3-yl)-1-neopentylpiperidine-4-carboxamide], for which the EC50 in experiment [1] amounted to 1 µM; in experiment [2] it was 0.0047 µM; on recombinant GSK3β kinase it was 0.063 µM; in experiment [3] (setting [7]) it was 0.265 µM; in experiment [5], 1.84 µM; in experiment [6], 0.108 µM. Further, in the experiment on IL-6, the concentration for a half-maximal effect (EC50) was found to be 2.94 µM. For the same compound, the IC50 in experiment [4] was determined as 0.889 µM.
On to `Cn1cc(-c2ccc3cnc(NC(=O)C4CCN(CCC(F)(F)F)CC4)cc3c2)cn1` [Compound 82, N-(6-(1-Methyl-1H-pyrazol-4-yl)isoquinolin-3-yl)-1-(3,3,3-trifluoropropyl) piperidine-4-carboxamide], for which the EC50 in experiment [1] was 4.95 µM; in experiment [2], 0.0009 µM; on recombinant GSK3β kinase, 0.022 µM; in experiment [3] (setting [7]), 0.315 µM; in experiment [5], 2.71 µM; in experiment [6], 0.156 µM. For the same compound, a half-maximal effect in the experiment with IL-6 (EC50) was put at 1.19 µM. Further, the IC50 in experiment [4] was determined as 5.1 µM.
With `Cn1cc(-c2ccc3cnc(NC(=O)C4CCN(CC(F)F)CC4)cc3c2)cn1` [Compound 84, 1-(2,2-Difluoroethyl)-N-(6-(1-methyl-1H-pyrazol-4-yl)isoquinolin-3-yl) piperidine-4-carboxamide], the half-maximal effective concentration (EC50) was found to be 1.9 µM in experiment [1]; 0.0013 µM in experiment [2]; 0.02 µM at recombinant GSK3β kinase; 0.454 µM in experiment [3] (setting [7]); 1.95 µM in experiment [5]; 0.148 µM in experiment [6]. Besides, the 50% effective concentration (EC50) with IL-6 is 2.46 µM. Moreover, inhibition in experiment [4] was half-maximal at 4.4 µM (IC50).
`Cn1cc(-c2ccc3cnc(NC(=O)C4CCN(CC(C)(C)F)CC4)cc3c2)cn1` [Compound 85, 1-(2-Fluoro-2-methylpropyl)-N-(6-(1-methyl-1H-pyrazol-4-yl)isoquinolin-3-yl)piperidine-4-carboxamide]: the half-maximal effective concentration (EC50) in experiment [1] is 1.2 µM; in experiment [2] it was 0.0014 µM; at recombinant GSK3β kinase, 0.029 µM; in experiment [3] (setting [7]), 0.392 µM; in experiment [5] it was 1.64 µM; in experiment [6], 0.097 µM. In the experiment with IL-6, the concentration giving a half-maximal response (EC50) was found to be 1.15 µM. This compound registered an IC50 in experiment [4] of 1.3 µM.
As for `Cn1cc(-c2ccc3cnc(NC(=O)[C@@H]4CCCNC4)cc3c2)cn1` [Compound 111, (R)—N-(6-(1-Methyl-1H-pyrazol-4-yl)isoquinolin-3-yl)piperidine-3-carboxamide], the EC50 in experiment [1] came out at 0.743 µM; in experiment [2], 0.0039 µM; at recombinant GSK3β kinase it was 0.04 µM; in experiment [3] (setting [7]) it was 0.597 µM; in experiment [5] it was 0.526 µM; in experiment [6] it was 0.28 µM. In experiment [4], this compound registered an IC50 of 0.272 µM.
With `Cc1nnc(-c2ccc3cnc(NC(=O)CN4CC5CCC(C4)O5)cc3c2)s1` [Compound 1029, 2-(8-Oxa-3-azabicyclo[3.2.1]octan-3-yl)-N-(6-(5-methyl-1,3,4-thiadiazol-2-yl)isoquinolin-3-yl)acetamide], the EC50 in experiment [1] is 3.34 µM; in experiment [2] it was 0.0257 µM; at recombinant GSK3β kinase it was 0.018 µM; in experiment [3] (setting [7]), 0.239 µM; in experiment [5] it was over 10 µM; in experiment [6], over 10 µM. Moreover, the half-maximal effective concentration (EC50) in the experiment with IL-6 is over 10 µM. Also, the inhibition at 10 µM in experiment [5] amounted to 34.6%; in experiment [6], 31.8%; in the experiment on IL-6, 7.3%.
For `C[C@@H]1CCCN1CC(=O)Nc1cc2cc(-c3cnc4n3CCNC4)ccc2cn1` [Compound 1030, (R)-2-(2-Methylpyrrolidin-1-yl)-N-(6-(5,6,7,8-tetrahydroimidazo[1,2-a]pyrazin-3-yl)isoquinolin-3-yl)acetamide], the inhibition at 10 µM in experiment [1] stood at 44.8%; in experiment [5], 19.3%; in the experiment with IL-6, 7.7%. Besides, the half-maximal effective concentration (EC50) was over 10 µM in experiment [1]; 0.194 µM in experiment [2]; 0.39 µM at recombinant GSK3β kinase; 1.2 µM in experiment [3] (setting [7]); over 10 µM in experiment [5]; 2.81 µM in experiment [6]. In the experiment with IL-6, the EC50 was over 10 µM.
Turning to `CN(CC(=O)Nc1cc2cc(-c3cnc4n3CCNC4)ccc2cn1)C1CCC1` [Compound 1031, 2-(Cyclobutyl(methyl)amino)-N-(6-(5,6,7,8-tetrahydroimidazo[1,2-a]pyrazin-3-yl)isoquinolin-3-yl)acetamide], the EC50 in experiment [1] is 3.97 µM; in experiment [2], 0.0704 µM; at recombinant GSK3β kinase, 0.38 µM; in experiment [3] (setting [7]), 0.969 µM; in experiment [5], 3.89 µM; in experiment [6], over 10 µM. Besides, the concentration giving a half-maximal response (EC50) in the experiment with IL-6 was over 10 µM. Also, the inhibition at 10 µM in experiment [6] was 39.2%; in the experiment on IL-6, 2%.
Consider `Cn1cc(-c2ccc3cnc(NC(=O)C45CCN(CC4)CC5)cc3c2)cn1` [Compound 1071, N-(6-(1-Methyl-1H-pyrazol-4-yl)isoquinolin-3-yl)quinuclidine-4-carboxamide], for which the inhibition at 10 µM in experiment [1] worked out at 43.2%; in experiment [5], 26.2%; in the experiment with IL-6, 8.8%. Moreover, the 50% effective concentration (EC50) in experiment [1] is over 10 µM; in experiment [2], 0.0165 µM; at recombinant GSK3β kinase it was 2.73 µM; in experiment [3] (SH-SY5Y), 6.9 µM; in experiment [5], over 10 µM; in experiment [6] it was 0.712 µM. The EC50 in the experiment on IL-6 is over 10 µM.
As for `CC(C)CN1CCC(F)(C(=O)Nc2cc3cc(-n4ccnn4)ccc3cn2)CC1` [Compound 1074, N-(6-(1H-1,2,3-triazol-1-yl)isoquinolin-3-yl)-4-fluoro-1-isobutylpiperidine-4-carboxamide], the figures for the inhibition at 10 µM (in experiment [1]; in experiment [5]; in the experiment with IL-6) were 19.7%, 25% and 5.6%, respectively. Further, the half-maximal effective concentration (EC50) in experiment [1] was over 10 µM; in experiment [2], 0.0069 µM; at recombinant GSK3β kinase, 0.278 µM; in experiment [3] (setting [7]) it was 1.3 µM; in experiment [5] it was over 10 µM; in experiment [6] it was over 10 µM. In the experiment on IL-6, this compound yielded an EC50 of over 10 µM.
